Test results: patent US9695155B2, “Herbicidal substituted pyrimidinyloxy benzene compounds” (E. I. DU PONT DE NEMOURS AND COMPANY, priority 2013, dated 2017)

Key:
Test in all cases: Test E preemergence
velvetleaf = format: in vivo, Abutilon theophrasti; details: for Velvetleaf plant response rating: scale 0 to 100 (0 no effect, 100 complete control)
Text: (§1) Seeds of plant species selected from corn (Zea mays), soybean (Glycine max), velvetleaf (Abutilon theophrasti), lambsquarters (Chenopodium album), wild poinsettia (Euphorbia heterophylla), palmer pigweed (Amaranthus palmeri), waterhemp (common waterhemp, Amaranthus rudis), surinam grass (Brachiaria decumbens), large (Lg) crabgrass (Digitaria sanguinalis), Brazilian crabgrass (Digitaria horizontalis), fall panicum (Panicum dichotomiflorum), giant foxtail (Setaria faberii), green foxtail (Setaria viridis), goosegrass (Eleusine indica), johnsongrass (Sorghum halepense), ragweed (common ragweed, Ambrosia elatior), barnyardgrass (Echinochloa crus-galli), sandbur (southern sandbur, Cenchrus echinatus), arrowleaf sida (Sida rhombifolia), Italian ryegrass (Lolium multiflorum), dayflower (Virginia (VA) dayflower, Commelina virginica), field bindweed (Convolvulus arvensis), morningglory (Ipomoea coccinea), nightshade (eastern black nightshade, Solanum ptycanthum), kochia (Kochia scoparia), yellow nutsedge (Cyperus esculentus), cocklebur (common cocklebur, Xanthium strumarium), smartweed (ladysthumb smartweed, and hairy beggarticks (Bidens pilosa), were planted into a silt loam soil and treated preemergence with test chemicals formulated in a non-phytotoxic solvent mixture which included a surfactant.
(§2) At the same time, plants from these crop and weed species and also horseweed (Canada horseweed, Conyza canadensis), waterhemp_RES1, (ALS & Triazine resistant common waterhemp, Amaranthus rudis), and waterhemp_RES2, (ALS & HPPD resistant common waterhemp, Amaranthus rudis) were planted in pots containing Redi-Earth® planting medium (Scotts Company, 14111 Scottslawn Road, Marysville, Ohio 43041) comprising spaghnum peat moss, vermiculite, wetting agent and starter nutrients were treated with postemergence applications of test chemicals formulated in the same manner. Plants ranged in height from 2 to 18 cm for postemergence treatments (1- to 4-leaf stage). Treated plants and controls were maintained in a greenhouse for 14 to 21 days, after which time all species were compared to controls and visually evaluated. Plant response ratings, summarized in Table E, are based on a scale of 0 to 100 where 0 is no effect and 100 is complete control. A dash (-) response means no test result.

Brazilian crabgrass = format: in vivo, Digitaria horizontalis; details: for Crabgrass, Brazil plant response rating: scale 0 to 100 (0 no effect, 100 complete control)
Text: as §1, §2

giant foxtail = format: in vivo, Setaria faberii; details: for Foxtail, Giant plant response rating: scale 0 to 100 (0 no effect, 100 complete control)
Text: as §1, §2

sandbur = format: in vivo, Cenchrus echinatus; details: for Sandbur plant response rating: scale 0 to 100 (0 no effect, 100 complete control)
Text: as §1, §2

arrowleaf sida = format: in vivo, Sida rhombifolia; details: for Arrowleaf Sida plant response rating: scale 0 to 100 (0 no effect, 100 complete control)
Text: as §1, §2

field bindweed = format: in vivo, Convolvulus arvensis; details: for Field Bindweed plant response rating: scale 0 to 100 (0 no effect, 100 complete control)
Text: as §1, §2

morningglory = format: in vivo, Ipomoea coccinea; details: for Morningglory plant response rating: scale 0 to 100 (0 no effect, 100 complete control)
Text: as §1, §2

nightshade = format: in vivo, Solanum ptycanthum; details: for Nightshade plant response rating: scale 0 to 100 (0 no effect, 100 complete control)
Text: as §1, §2

yellow nutsedge = format: in vivo, Cyperus esculentus; details: for Nutsedge, Yellow plant response rating: scale 0 to 100 (0 no effect, 100 complete control)
Text: as §1, §2

[1] = 8 g ai/ha, scale 0 to 100, 0 is no effect, 100 is complete control
[2] = 125 g ai/ha, scale 0 to 100, 0 no effect, 100 complete control
[3] = Preemergence, 62 g ai/ha, scale 0 to 100, 0 no effect, 100 complete control
[4] = preemergence, 125 g ai/ha, scale 0 to 100, 0 no effect, 100 complete control
[5] = 250 g ai/ha, scale 0 to 100, 0 no effect, 100 complete control

Clc1cnc(Oc2ccccc2-n2cc(Br)cn2)nc1 [Compound 7, 2-[2-(4-bromo-1H-pyrazol-1-yl)phenoxy]-5-chloropyrimidine]
Plant response rating, Velvetleaf (velvetleaf; [1]): 20 | Velvetleaf plant response rating (velvetleaf; 16 g ai/ha): 50 | Velvetleaf plant response rating (velvetleaf; 31 g ai/ha): 65 | Velvetleaf plant response rating (velvetleaf; 62 g ai/ha): 98 | Plant response rating, Velvetleaf (velvetleaf; [2]): 100 | Plant response rating, Crabgrass, Brazil (Brazilian crabgrass; [1]): 0 | Crabgrass, Brazil plant response rating (Brazilian crabgrass; 16 g ai/ha): 0 | Crabgrass, Brazil plant response rating (Brazilian crabgrass; 31 g ai/ha): 80 | Crabgrass, Brazil plant response rating (Brazilian crabgrass; 62 g ai/ha): 100 | Plant response rating, Crabgrass, Brazil (Brazilian crabgrass; [2]): 100 | Plant response rating, Foxtail, Giant (giant foxtail; [1]): 15 | Foxtail, Giant plant response rating (giant foxtail; 16 g ai/ha): 20 | Foxtail, Giant plant response rating (giant foxtail; 31 g ai/ha): 20 | Foxtail, Giant plant response rating (giant foxtail; 62 g ai/ha): 40 | Plant response rating, Foxtail, Giant (giant foxtail; [2]): 90 | Plant response rating, Sandbur (sandbur; [1]): 0 | Sandbur plant response rating (sandbur; 16 g ai/ha): 0 | Sandbur plant response rating (sandbur; 31 g ai/ha): 0 | Sandbur plant response rating (sandbur; 62 g ai/ha): 0 | Plant response rating, Sandbur (sandbur; [2]): 35 | Plant response rating, Arrowleaf Sida (arrowleaf sida; 8 g ai/ha, preemergence, scale 0 to 100, 0 is no effect, 100 is complete control): 0 | Arrowleaf Sida plant response rating (arrowleaf sida; 16 g ai/ha, preemergence): 0 | Arrowleaf Sida plant response rating (arrowleaf sida; 31 g ai/ha, preemergence): 25 | Plant response rating, Arrowleaf Sida (arrowleaf sida; [3]): 50 | Plant response rating, Arrowleaf Sida (arrowleaf sida; [4]): 80 | Plant response rating, Field Bindweed (field bindweed; [1]): 0 | Field Bindweed plant response rating (field bindweed; 16 g ai/ha): 0 | Field Bindweed plant response rating (field bindweed; 31 g ai/ha): 0 | Field Bindweed plant response rating (field bindweed; 62 g ai/ha): 0 | Plant response rating, Field Bindweed (field bindweed; [2]): 0 | Plant response rating, Morningglory (morningglory; [1]): 0 | Morningglory plant response rating (morningglory; 16 g ai/ha): 0 | Morningglory plant response rating (morningglory; 31 g ai/ha): 0 | Morningglory plant response rating (morningglory; 62 g ai/ha): 0 | Plant response rating, Morningglory (morningglory; [2]): 0 | Plant response rating, Nightshade (nightshade; [1]): 0 | Nightshade plant response rating (nightshade; 16 g ai/ha): 65 | Nightshade plant response rating (nightshade; 31 g ai/ha): 98 | Nightshade plant response rating (nightshade; 62 g ai/ha): 98 | Plant response rating, Nightshade (nightshade; [2]): 98 | Plant response rating, Nutsedge, Yellow (yellow nutsedge; [1]): 0 | Nutsedge, Yellow plant response rating (yellow nutsedge; 16 g ai/ha): 0 | Nutsedge, Yellow plant response rating (yellow nutsedge; 31 g ai/ha): 0 | Nutsedge, Yellow plant response rating (yellow nutsedge; 62 g ai/ha): 0 | Plant response rating, Nutsedge, Yellow (yellow nutsedge; [2]): 0

FC(F)(F)c1cnn(-c2ccccc2Oc2ncc(Cl)cn2)c1 [Compound 16]
Velvetleaf plant response rating (velvetleaf; 16 g ai/ha): 0 | Velvetleaf plant response rating (velvetleaf; 31 g ai/ha): 50 | Velvetleaf plant response rating (velvetleaf; 62 g ai/ha): 85 | Plant response rating, Velvetleaf (velvetleaf; [2]): 100 | Plant response rating, Velvetleaf (velvetleaf; [5]): 100 | Crabgrass, Brazil plant response rating (Brazilian crabgrass; 62 g ai/ha): 100 | Plant response rating, Crabgrass, Brazil (Brazilian crabgrass; [2]): 100 | Plant response rating, Crabgrass, Brazil (Brazilian crabgrass; [5]): 100 | Foxtail, Giant plant response rating (giant foxtail; 16 g ai/ha): 15 | Foxtail, Giant plant response rating (giant foxtail; 31 g ai/ha): 20 | Foxtail, Giant plant response rating (giant foxtail; 62 g ai/ha): 100 | Plant response rating, Foxtail, Giant (giant foxtail; [2]): 100 | Plant response rating, Foxtail, Giant (giant foxtail; [5]): 100 | Sandbur plant response rating (sandbur; 16 g ai/ha): 0 | Sandbur plant response rating (sandbur; 31 g ai/ha): 20 | Sandbur plant response rating (sandbur; 62 g ai/ha): 20 | Plant response rating, Sandbur (sandbur; [2]): 70 | Plant response rating, Sandbur (sandbur; [5]): 95 | Arrowleaf Sida plant response rating (arrowleaf sida; 16 g ai/ha, preemergence): 5 | Arrowleaf Sida plant response rating (arrowleaf sida; 31 g ai/ha, preemergence): 35 | Plant response rating, Arrowleaf Sida (arrowleaf sida; [3]): 70 | Plant response rating, Arrowleaf Sida (arrowleaf sida; [4]): 95 | Plant response rating, Arrowleaf Sida (arrowleaf sida; preemergence, 250 g ai/ha, scale 0 to 100, 0 no effect, 100 complete control): 98 | Field Bindweed plant response rating (field bindweed; 16 g ai/ha): 0 | Field Bindweed plant response rating (field bindweed; 31 g ai/ha): 0 | Field Bindweed plant response rating (field bindweed; 62 g ai/ha): 0 | Plant response rating, Field Bindweed (field bindweed; [2]): 30 | Plant response rating, Field Bindweed (field bindweed; [5]): 60 | Morningglory plant response rating (morningglory; 16 g ai/ha): 0 | Morningglory plant response rating (morningglory; 31 g ai/ha): 0 | Morningglory plant response rating (morningglory; 62 g ai/ha): 0 | Plant response rating, Morningglory (morningglory; [2]): 25 | Plant response rating, Morningglory (morningglory; [5]): 95 | Nightshade plant response rating (nightshade; 16 g ai/ha): 0 | Nightshade plant response rating (nightshade; 31 g ai/ha): 98 | Nightshade plant response rating (nightshade; 62 g ai/ha): 100 | Plant response rating, Nightshade (nightshade; [2]): 100 | Plant response rating, Nightshade (nightshade; [5]): 100 | Nutsedge, Yellow plant response rating (yellow nutsedge; 16 g ai/ha): 0 | Nutsedge, Yellow plant response rating (yellow nutsedge; 31 g ai/ha): 0 | Nutsedge, Yellow plant response rating (yellow nutsedge; 62 g ai/ha): 0 | Plant response rating, Nutsedge, Yellow (yellow nutsedge; [2]): 35 | Plant response rating, Nutsedge, Yellow (yellow nutsedge; [5]): 35
